{"source": "patent US12239132B2", "about": "“Compounds and methods for increasing soil nutrient availability” (SOUND AGRICULTURE COMPANY, priority 2018, dated 2025)", "key": {"Azotobacter vinlandii": {"tested_on": "Azotobacter vinlandii", "experiment": "Acetylene reduction method to measure nitrogen fixation in Azotobacter vinlandii", "assay_type": "cell-based", "details": "increasing amounts of AB09, Burks-N media, 48 h growth, dose response", "excerpt": "Azotobacter vinlandii is a model free-living nitrogen fixing bacteria, or diazotroph, commonly found in soils. The acetylene reduction technique was used to determine if the nitrogen fixation activity of A. vinlandii is altered due to AB09 treatment. The acetylene reduction technique relies on the non-specific activity of the nitrogenase enzyme (which is responsible for reducing atmospheric dinitrogen gas N2 to ammonia NH3), to reduce acetylene to ethylene. Acetylene and ethylene gases were detected and quantified by GC/MS.\nLiquid flask cultures of A. vinlandii were grown in nitrogen-free growth media (Burks-N) and supplemented with varying amounts of AB09 (0 ug/mL culture received a mock treatment of water). Samples were analyzed for acetylene reduction to ethylene after 48 h of growth (cell concentration was normalized prior to the addition of acetylene).\nAzotobacter vinlandii cultures starting from OD600=0.02 were grown in liquid N-free bacterial growth media (Burks-N) with varying amounts of AB09 shaking at 28 C. Three flasks of bacteria were grown for each concentration of AB09. After 48 h, cultures were normalized OD600=0.1 and 5 mL of the normalized culture was transferred to gas-tight autosampler vials. […] After 3 hours of incubation (with shaking at 28 C), the gas headspace of the vials was measured via GC/MS for acetylene and ethylene. […]"}, "wheat [1]": {"tested_on": "wheat", "experiment": "Wheat plant growth assay (seed treatment)", "assay_type": "in vivo", "details": "seed treatment 1 ug/seed, four days after emergence, vs mock treated", "procedure": "To determine the effect of AB09 on plants, AB09 was seed treated at a rate of 1 ug/seed onto wheat seeds. Plants were analyzed four days after emergence. […] AB09 was applied to wheat seeds, which were planted in sand and shoots were measured for height at four days post-emergence. Control seeds received a mock treatment. The WinRhizo Pro root scanner and software were used to obtain root length and surface area. AB09 at a rate of lug/seed in acetone was treated onto seeds and the acetone was allowed to fully evaporate. Control seeds were mock treated with acetone. Seeds were planted in wet sand in 50 mL tubes sand, placed under fluorescent lights, and watered with tap water. Seedlings were measured four days post-emergence for shoot height. The WinRhizo Pro root scanner and software were used to obtain root length and surface area."}, "corn": {"tested_on": "corn", "experiment": "Corn field trials in Iowa, nitrogen deficiency", "assay_type": "in vivo", "excerpt": "In some instances, disclosed herein is a field trial of AB09 application to corn plants.\nIn some instances, disclosed herein is an aerial photograph description of a large scale strip field trial of corn plants applied with a compound, formulation, method, container, or kit disclosed herein, for example AB09. […] Greener (less yellow) coloring is indicative of healthier plants.\nAB09 was applied to Buckingham, Iowa corn plots at the start of the season. In some instances, disclosed herein is a photo of corn at stage R3, with a treated plot on the right, and an untreated plot […]. Leaf firing (yellowing on the lower leaves) is apparent on the untreated plot, where AB09 plants are greener. In some instances, disclosed herein is an aerial image of treated and untreated plots at tasseling. […] Nitrogen content was quantified using a standard tissue sampling test to measure percent nitrogen content in leaf tissue samples."}, "wheat [2]": {"tested_on": "wheat", "experiment": "Wheat growth on nitrogen free media with nitrogen fixing bacterium", "assay_type": "in vivo", "details": "AB09 in combination with a nitrogen fixing bacterium, vs control lacking treatment", "procedure": "The ability of the AB09 molecule to control useful soil bacteria metabolism has implications for building integrated technology systems and groundbreaking products. In the lab, AB09 was administered in combination with a nitrogen fixing bacterium to nitrogen free media."}, "lettuce": {"tested_on": "lettuce", "experiment": "Field trials in lettuce", "assay_type": "in vivo", "details": "field trial"}}, "note": "Entries after “also recorded” stand apart in the source; their conditions may differ."}
{"compound": "CC1=CC(Oc2c(C)occc2=O)OC1=O", "note": "(centres unmarked) [AB09, maltol lactone]", "values": [{"measurement": "ethylene gas from acetylene reduction (nitrogenase activity)", "setting": "Azotobacter vinlandii", "value": "increased amounts of ethylene gas"}, {"measurement": "root length", "setting": "wheat [1]", "value": "increase"}, {"measurement": "root surface area", "setting": "wheat [1]", "value": "increase"}, {"measurement": "shoot height", "setting": "wheat [1]", "value": "increase"}, {"measurement": "leaf firing (yellowing of the lower leaves) of corn", "setting": "corn; Buckingham, Iowa corn plots, stage R3, vs untreated plot", "value": "greener; also recorded: reduced leaf firing"}, {"measurement": "nitrogen content in corn leaf tissue samples", "setting": "corn; compared to a control sample", "value": "higher leaf nitrogen content"}, {"measurement": "yellowing of corn plants at de-tassling", "setting": "corn; large scale strip field trial, aerial photograph, vs control plants", "value": "reduced yellowing"}, {"measurement": "NDVI of plots at tasseling (aerial image)", "setting": "corn; treated strip vs untreated plot", "value": "higher NDVI values"}, {"measurement": "wheat growth on nitrogen free media", "setting": "wheat [2]", "value": "substantially greater; also recorded: more robust growth"}, {"measurement": "average size of lettuce heads", "setting": "lettuce", "value": "increased the average size"}, {"measurement": "increase in lettuce harvest weight", "setting": "lettuce", "value": 25, "unit": "%"}]}
